Where two headings read alike, the source gives them in different places. Bridge positions count the residues as written; N and C are the ends. Square brackets hold non-standard residues; d marks the D form. Peptide text beside a SMILES is read from it. S5 = C=CCCC[C@](C)(N)C(=O)O
Columns and labels:
[1] = Proteolytic stability in human plasma; settings: pooled human plasma, pH 7.4, 2 μM, 37°C, time points 0, 10, 30, 60, 120 min, LC-MS/MS, duplicate
[2] = tested on: pseudovirus NL4-3ΔEnv-NanoLuc/SARS-CoV-2; settings: 48 h
[3] = α-Helical propensity by CD spectroscopy; format: physicochemical; settings: 0.125 mg/ml peptide in 10 mM PBS, 25°C, 185 to 260 nm, calculated with CDNN software
[4] = tested on: pseudovirus NL4-3.Luc.R-E-/VSV-G; settings: 48 h
[5] = tested on: SARS-CoV-2 (US_WA-1/2020); format: cell-based
[6] = tested on: pseudovirus NL4-3.Luc.R-E-/VSV-G; settings: 24 h
[7] = tested on: pseudovirus NL4-3ΔEnv-NanoLuc/SARS-CoV-2; settings: 24 h
[8] = reported for the control stapled peptide; cited from earlier work

CC(C)[N+](C)(CCOC(=O)C1c2ccccc2Oc2ccccc21)C(C)C [Propantheline bromide, propantheline bromide]
half-life (T1/2) in human plasma [1]: 8 min

CC[C@H](C)[C@H](NC(=O)[C@@H](NC(C)=O)[C@@H](C)O)C(=O)N[C@@H](CCC(=O)O)C(=O)N[C@@H](CCC(=O)O)C(=O)N[C@@H](CCC(N)=O)C(=O)N[C@@H](C)C(=O)N[C@@H](CCCCN)C(=O)N[C@H](C(=O)N[C@@]1(C)CCC/C=C\CCC[C@@](C)(C(=O)N[C@@H](CC(N)=O)C(=O)N[C@@H](Cc2c[nH]cn2)C(=O)N[C@@H](CCC(=O)O)C(=O)N[C@@H](C)C(=O)N[C@@H](CCC(=O)O)C(=O)N[C@@H](CC(=O)O)C(=O)N[C@@H](CC(C)C)C(=O)N[C@@H](Cc2ccccc2)C(=O)N[C@@H](Cc2ccc(O)cc2)C(=O)N[C@@H](CCC(N)=O)C(=O)N[C@@]2(C)CCC/C=C\CCC[C@@](C)(C(=O)N[C@@H](Cc3c[nH]c4ccccc34)C(=O)N[C@@H](CC(N)=O)C(N)=O)NC(=O)[C@H](C)NC(=O)[C@H](CC(C)C)NC(=O)[C@H](CO)NC2=O)NC(=O)[C@H](CCCCN)NC(=O)[C@H](CC(=O)O)NC(=O)[C@H](CC(C)C)NC1=O)[C@@H](C)O [NYBSP-1] (Ac-TIEEQAKT[S5]LDK[S5]NHEAEDLFYQ[S5]SLA[S5]WN-NH2; staple (Z) 9-13, 24-28)
IC50 [2]: 2.2 ± 0.14 µM | % α-Helicity (185-260 nm) [3]: 94% | IC50 [4]: > 27.5 µM | IC100 [5]: 17.2 µM | IC50 [6]: > 27.5 µM | IC50 [7]: 4.1 ± 0.26 µM

CC(=O)N[C@@H](CC(=O)O)C(=O)N[C@@H](CC(N)=O)C(=O)N[C@@H](CCC(=O)O)C(=O)N[C@@]1(C)CCC/C=C\CCC[C@@](C)(C(=O)N[C@@H](Cc2ccc(O)cc2)C(=O)N[C@@H](Cc2c[nH]cn2)C(=O)N[C@@H](CC(C)C)C(=O)N[C@@]2(C)CCC/C=C\CCC[C@@](C)(C(=O)N[C@H](C(N)=O)C(C)C)NC(=O)[C@H](CC(N)=O)NC(=O)[C@H](Cc3ccccc3)NC(=O)[C@H](Cc3ccccc3)NC2=O)NC(=O)[C@H](Cc2ccccc2)NC(=O)[C@H](Cc2c[nH]c3ccccc23)NC(=O)[C@H](CCC(N)=O)NC1=O [StRIP16] (Ac-DNE[S5]QWF[S5]YHL[S5]FFN[S5]V-NH2; staple (Z) 4-8, 12-16)
IC50 [2]: > 43.5 µM | IC50 [4]: > 43.5 µM | IC50 [6]: > 43.5 µM | IC50 [7]: > 43.5 µM | % helicity [8]: 38%

From paper PMC7751257 (mBio, 2020)
